Molecular target: E. coli SQR (pFAS, SdhABCD^+) (Escherichia coli, UniProt P0AC41)
Assay: PES-DCIP assay and Clark O2 electrode, IMVs
Assay type: biochemical
Conditions: pH 7.5 (50 mM MOPS)

E. coli SQR (pFAS, SdhABCD^+), sequence (P0AC41 whole entry): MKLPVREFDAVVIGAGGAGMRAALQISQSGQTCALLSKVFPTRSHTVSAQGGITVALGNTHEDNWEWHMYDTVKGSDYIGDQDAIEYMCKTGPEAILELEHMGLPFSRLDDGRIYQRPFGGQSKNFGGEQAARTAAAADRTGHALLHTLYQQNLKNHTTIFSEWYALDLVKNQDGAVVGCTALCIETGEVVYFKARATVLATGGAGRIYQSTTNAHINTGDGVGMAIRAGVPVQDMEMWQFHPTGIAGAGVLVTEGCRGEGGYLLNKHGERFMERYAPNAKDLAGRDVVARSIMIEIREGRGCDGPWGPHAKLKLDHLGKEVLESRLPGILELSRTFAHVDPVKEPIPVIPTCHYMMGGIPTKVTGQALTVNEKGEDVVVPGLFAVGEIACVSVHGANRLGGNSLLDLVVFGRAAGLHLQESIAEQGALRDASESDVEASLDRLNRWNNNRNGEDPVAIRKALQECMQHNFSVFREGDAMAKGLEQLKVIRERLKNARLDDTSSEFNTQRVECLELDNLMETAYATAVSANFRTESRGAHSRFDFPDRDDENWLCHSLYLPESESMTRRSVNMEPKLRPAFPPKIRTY
E. coli SQR (pFAS, SdhABCD^+), sequence (P07014 whole entry partner): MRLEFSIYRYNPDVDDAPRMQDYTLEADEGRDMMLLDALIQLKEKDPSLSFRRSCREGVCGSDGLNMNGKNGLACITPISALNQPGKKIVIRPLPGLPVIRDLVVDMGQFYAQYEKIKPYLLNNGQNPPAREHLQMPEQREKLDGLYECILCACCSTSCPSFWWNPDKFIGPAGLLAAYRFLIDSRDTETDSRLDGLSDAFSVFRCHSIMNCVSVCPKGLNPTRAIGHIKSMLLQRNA
E. coli SQR (pFAS, SdhABCD^+), sequence (P69054 whole entry partner): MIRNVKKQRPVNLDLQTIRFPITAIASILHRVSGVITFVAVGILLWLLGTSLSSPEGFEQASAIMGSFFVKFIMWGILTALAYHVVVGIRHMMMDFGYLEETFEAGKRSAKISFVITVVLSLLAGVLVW
E. coli SQR (pFAS, SdhABCD^+), sequence (P0AC44 whole entry partner): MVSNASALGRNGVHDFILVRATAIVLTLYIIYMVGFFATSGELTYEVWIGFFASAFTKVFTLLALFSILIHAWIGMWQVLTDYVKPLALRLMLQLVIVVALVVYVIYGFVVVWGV

O=C(O)CCC(=O)O [succinate]
PES-DCIP assay and Clark O2 electrode, IMVs: E. coli strains overexpressing either the SQR operon (pFAS, SdhABCD^+)

— publication PMC4145680 (mBio, 2014)
